Reference: patent US12606572B2, “Substituted heterocycles and uses thereof” (Kumquat Biosciences Inc., priority 2023, dated 2026)

Experiments:
KRAS G12S = target: T1, KRAS G12S (Homo sapiens, UniProt P01116, G12S); experiment: HTRF assay, interaction of GST-tagged K-Ras with His-tagged hSOS1 (KRAS G12S); format: biochemical; settings: <500 nM, read-out: Inhibition of KRAS G12S (IC50)
T1 construct: made in house; host or cells: E. coli BL21 (DE3)
Text: (§1) This assay can be also used to assess a selective inhibition or reduction of signaling output of a mutant Ras protein relative to a wildtype, or relative to a different mutant Ras protein. For example, the equilibrium interaction of wildtype KRAS or K-Ras mutant (e.g., wildtype or a mutant thereof) with SOS1 (e.g., hSOS1) can be assessed as a proxy or an indication for the ability of a subject compound to bind and inhibit Ras protein. The HTRF assay detects from (i) a fluorescence resonance energy transfer (FRET) donor (e.g., antiGST-Europium) that is bound to GST-tagged K-Ras mutant to (ii) a FRET acceptor (e.g., anti-6His-XL665) bound to a His-tagged hSOS1.
(§2) The assay buffer can contain ˜5 mM HEPES pH 7.4, ˜150 mM NaCl, ˜1 mM DTT, 0.05% BSA and 0.0025% (v/v) Igepal. A Ras working solution is prepared in an assay buffer containing typically a suitable amount of the protein construct (e.g., GST-tagged K-Ras mutant) and the FRET donor (e.g., antiGST-Eu(K) from Cisbio, France). A SOS1 working solution is prepared in an assay buffer containing suitable amount of the protein construct (e.g., His-hSOS1) and the FRET acceptor (e.g., anti-6His-XL665 from Cisbio, France). A suitable amount of the protein construct will depend on the range of activity or range of IC50 values being detected or under investigation. For detecting an IC50 within a range of 500 nM, the protein constructs of the same range of molarity can be utilized.
(§3) A fixed volume of DMSO with or without test compound is transferred into a 384-well plate. Ras working solution is added to all wells of the test plate. SOS1 working solution is added to all wells except for those that are subsequently filled with inhibitor control solution. Upon incubation for about 10 minutes or longer, the fluorescence is measured with a M1000Pro plate reader (Tecan) using HTRF detection (excitation 337 nm, emission 1: 620 nm, emission 2: 665 nm). Compounds are tested in duplicate at different concentrations (for example, 10 μM, 2.5 μM, 0.63 μM, 0.16 μM, 0.04 μM, 0.01 μM test compound). The ratiometric data (i.e., emission 2 divided by emission 1) is used to calculate IC50 values against Ras using GraphPad Prism (GraphPad software). Signaling output measured in terms of IC50 values can be obtained and a ratio of IC50 against one mutant relative to another mutant can be calculated. For instance, a selective reduction of K-Ras G12S signaling output can be evidenced by a ratio greater than one. In particular, a selective reduction of K-Ras G12S signaling relative to K-Ras WT signaling is evidenced if the ratio of IC50 (against K-Ras WT) to IC50 (against K-Ras G12S) is greater than 1.

KRAS WT = target: T2, KRAS WT (Homo sapiens, UniProt P01116); experiment: HTRF assay, interaction of GST-tagged K-Ras with His-tagged hSOS1 (KRAS wildtype); format: biochemical; settings: <500 nM, read-out: Inhibition of KRAS WT (IC50)
T2 construct: made in house; host or cells: E. coli BL21 (DE3)
T2 sequence (P01116 1-188 isoform P01116-2): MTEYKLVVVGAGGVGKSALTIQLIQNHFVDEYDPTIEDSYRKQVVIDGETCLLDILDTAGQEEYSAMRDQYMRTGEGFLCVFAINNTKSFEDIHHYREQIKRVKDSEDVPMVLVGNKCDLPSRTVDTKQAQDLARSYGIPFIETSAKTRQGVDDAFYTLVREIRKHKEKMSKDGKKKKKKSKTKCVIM
Text: as §1, §2, §3

T1 sequence (P01116 1-188 isoform P01116-2 G12S): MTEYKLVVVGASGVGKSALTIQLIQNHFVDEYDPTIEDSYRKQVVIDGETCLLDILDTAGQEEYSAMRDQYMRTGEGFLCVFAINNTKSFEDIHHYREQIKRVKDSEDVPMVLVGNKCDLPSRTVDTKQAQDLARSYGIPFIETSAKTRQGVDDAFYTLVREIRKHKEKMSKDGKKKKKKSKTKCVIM

| SMILES | IC50 (KRAS G12S) [µM] | IC50 (KRAS WT) [µM] |
| --- | --- | --- |
| CC([C@H]1CCN1C(=O)n1cncn1)N1CCOc2c(Cl)c(-c3ccc(F)c4sc(N)c(C#N)c34)c(F)c3nc(OC[C@@]45CCCN4C[C@H](F)C5)nc1c23 (stereo partly drawn) [Compound 445, 4-(4-(1-((R)-1-(1H-1,2,4-triazole-1-carbonyl)azetidin-2-yl)ethyl)-8-chloro-10-fluoro-2-(((2R,7aS)-2-fluorotetrahydro-1H-pyrrolizin-7a (5H)-yl)methoxy)-5,6-dihydro-4H-[1,4]oxazepino[5,6,7-de]quinazolin-9-yl)-2-amino-7-fluorobenzo[b]thiophene-3-carbonitrile] | < 0.5 | < 0.5 |
| CC(C)[C@@H]1[C@H](CN2CCOc3c(Cl)c(-c4ccc(F)c5sc(N)c(C#N)c45)c(F)c4nc(OC[C@@]56CCCN5C[C@H](F)C6)nc2c34)CN1C(=O)n1cnc(F)n1 [Compound 471, 2-amino-4-(8-chloro-10-fluoro-4-(((2R,3R)-1-(3-fluoro-1H-1,2,4-triazole-1-carbonyl)-2-isopropylazetidin-3-yl)methyl)-2-(((2R,7aS)-2-fluorotetrahydro-1H-pyrrolizin-7a (5H)-yl)methoxy)-5,6-dihydro-4H-[1,4]oxazepino[5,6,7-de]quinazolin-9-yl)-7-fluorobenzo[b]thiophene-3-carbonitrile] | < 0.5 | < 0.5 |
| CC(C)[C@@H]1[C@H](CN2CCOc3c(Cl)c(-c4ccc(F)c5sc(N)c(C#N)c45)c(F)c4nc(OC[C@@]56CCCN5C[C@H](F)C6)nc2c34)CN1C(=O)n1cnc(F)n1 (single isomer, unassigned) [Compound 408] | < 0.5 | < 0.5 |
| C=C(C(=O)N1CC(CN2CCOc3c(Cl)c(-c4ccc(F)c5sc(N)c(C#N)c45)c(F)c4nc(OC[C@@]56CCCN5C[C@H](F)C6)nc2c34)C1)C1CC1 [Compound 447, 2-amino-4-(8-chloro-4-((1-(2-cyclopropylacryloyl)azetidin-3-yl)methyl)-10-fluoro-2-(((2R,7aS)-2-fluorotetrahydro-1H-pyrrolizin-7a(5H)-yl)methoxy)-5,6-dihydro-4H-[1,4]oxazepino [5,6,7-de]quinazolin-9-yl)-7-fluorobenzo[b]thiophene-3-carbonitrile] | < 0.5 | < 0.5 |
| C=CC(=O)N1CC[C@@H](N2CCOc3c(Cl)c(-c4ccc(F)c5sc(N)c(C#N)c45)c(F)c4nc(OC[C@@]56CCCN5C[C@H](F)C6)nc2c34)[C@H]1C [Compound 470, 4-(4-((2R,3R)-1-acryloyl-2-methylpyrrolidin-3-yl)-8-chloro-10-fluoro-2-(((2R, 7aS)-2-fluorotetrahydro-1H-pyrrolizin-7a(5H)-yl)methoxy)-5,6-dihydro-4H-[1,4]oxazepino[5,6,7-de]quinazolin-9-yl)-2-amino-7-fluorobenzo[b]thiophene-3-carbonitrile] | < 0.5 | < 0.5 |
| C=CC(=O)N1CC[C@@H](N2CCCOc3c(Cl)c(-c4ccc(F)c5sc(N)c(C#N)c45)c(F)c4nc(OC[C@@]56CCCN5C[C@H](F)C6)nc2c34)[C@H]1C [Compound 411, 4-(4-((2R,3R)-1-acryloyl-2-methylpyrrolidin-3-yl)-9-chloro-11-fluoro-2-(((2R,7aS)-2-fluorotetrahydro-1H-pyrrolizin-7a (5H)-yl)methoxy)-4,5,6,7-tetrahydro-[1,5]oxazocino-[4,3,2-de]quinazolin-10-yl)-2-amino-7-fluorobenzo[b]thiophene-3-carbonitrile] | < 0.5 | < 0.5 |
| C[C@@H]1[C@H](N2c3nc(OC[C@@]45CCCN4C[C@H](F)C5)nc4c(F)c(-c5ccc(F)c6sc(N)c(C#N)c56)c(Cl)c(c34)OC[C@@H]2C)CCN1C(=O)n1cnc(C#N)c1 [Compound 406, 1-((2R,3R)-3-((5S)-9-(2-amino-3-cyano-7-fluorobenzo[b]thiophen-4-yl)-8-chloro-10-fluoro-2-(((2R,7aS)-2-fluorotetrahydro-1H-pyrrolizin-7a(5H)-yl)methoxy)-5-methyl-5,6-dihydro-4H-[1,4]oxazepino [5,6,7-de]quinazolin-4-yl)-2-methylpyrrolidine-1-carbonyl)-1H-imidazole-4-carbonitrile] | < 0.5 | < 0.5 |
| N#Cc1c(N)sc2c(F)ccc(-c3c(Cl)c4c5c(nc(OC[C@@]67CCCN6C[C@H](F)C7)nc5c3F)N(CC3(O)CN(C(=O)n5ccnc5)C3)CCO4)c12 [Compound 463, 2-amino-4-(8-chloro-10-fluoro-2-(((2R,7aS)-2-fluorotetrahydro-1H-pyrrolizin-7a(5H)-yl)methoxy)-4-((3-hydroxy-1-(1H-imidazole-1-carbonyl)azetidin-3-yl)methyl)-5,6-dihydro-4H-[1,4]oxazepino [5,6,7-de]quinazolin-9-yl)-7-fluorobenzo[b]thiophene-3-carbonitrile] | < 0.5 | < 0.5 |

Second part, the compound after the results:

| IC50 (KRAS G12S) [µM] | IC50 (KRAS WT) [µM] | SMILES |
| --- | --- | --- |
| < 0.5 | < 0.5 | C[C@H](O)[C@H]1COc2c(Cl)c(-c3ccc(F)c4sc(N)c(C#N)c34)c(F)c3nc(OC[C@@]45CCCN4C[C@H](F)C5)nc(c23)N1CC1CN(C(=O)n2ccnc2)C1 [Compound 427, 4-((5R)-4-((1-(1H-imidazole-1-carbonyl)azetidin-3-yl)methyl)-8-chloro-10-fluoro-2-(((2R,7aS)-2-fluorotetrahydro-1H-pyrrolizin-7a(5H)-yl)methoxy)-5-((S)-1-hydroxyethyl)-5,6-dihydro-4H-[1,4]oxazepino [5,6,7-de]quinazolin-9-yl)-2-amino-7-fluorobenzo[b] thiophene-3-carbonitrile] |
| < 0.5 | < 0.5 | Cc1cn(C(=O)N2CC[C@@H](N3CCOc4nc(-c5cc(N)c(F)c(C)c5C(F)(F)F)c(F)c5nc(OC[C@@]67CCCN6C[C@H](F)C7)nc3c45)[C@H]2C)c(C)n1 [Compound 487, ((2R,3R)-3-(5-(5-amino-4-fluoro-3-methyl-2-(trifluoromethyl)phenyl)-4-fluoro-2-(((2R,7aS)-2-fluorotetrahydro-1H-pyrrolizin-7a(5H)-yl)methoxy)-8,9-dihydro-10H-7-oxa-1,3,6,10-tetraazacyclohepta[de]naphthalen-10-yl)-2-methylpyrrolidin-1-yl)(2,4-dimethyl-1H-imidazol-1-yl) methanone] |
| < 0.5 | < 0.5 | CN(C)C/C=C/C(=O)N1CC(CN2CCOc3c(Cl)c(-c4ccc(F)c5sc(N)c(C#N)c45)c(F)c4nc(OC[C@@]56CCCN5C[C@H](F)C6)nc2c34)C1 [Compound 469, 2-amino-4-(8-chloro-4-((1-((E)-4-(dimethylamino)but-2-enoyl)azetidin-3-yl)methyl)-10-fluoro-2-(((2R, 7aS)-2-fluorotetrahydro-1H-pyrrolizin-7a(5H)-yl)methoxy)-5,6-dihydro-4H-[1,4]oxazepino[5,6,7-de]quinazolin-9-yl)-7-fluorobenzo [b]thiophene-3-carbonitrile] |
| < 0.5 | < 0.5 | CC1C(CN2c3nc(OC[C@@]45CCCN4C[C@H](F)C5)nc4c(F)c(-c5ccc(F)c6sc(N)c(C#N)c56)c(Cl)c(c34)OC[C@@H]2[C@H](C)O)CCN1C(=O)n1ccnc1 (stereo partly drawn) [Compound 457, 4-((5R)-4-((1-(1H-imidazole-1-carbonyl)-2-methylpyrrolidin-3-yl)methyl)-8-chloro-10-fluoro-2-(((2R,7aS)-2-fluorotetrahydro-1H-pyrrolizin-7a(5H)-yl)methoxy)-5-((S)-1-hydroxyethyl)-5,6-dihydro-4H-[1,4]oxazepino[5,6,7-de]quinazolin-9-yl)-2-amino-7-fluorobenzo[b]thiophene-3-carbonitrile] |
| < 0.5 | < 0.5 | N#Cc1c(N)sc2c(F)ccc(-c3c(Cl)c4c5c(nc(OC[C@@]67CCCN6C[C@H](F)C7)nc5c3F)N(CC3CN(C(=O)/C=C/C(F)F)C3)CCO4)c12 [Compound 423, 2-amino-4-(8-chloro-4-((1-((E)-4,4-difluorobut-2-enoyl)azetidin-3-yl)methyl)-10-fluoro-2-(((2R,7aS)-2-fluorotetrahydro-1H-pyrrolizin-7a (5H)-yl)methoxy)-5,6-dihydro-4H-[1,4]oxazepino[5,6,7-de]quinazolin-9-yl)-7-fluorobenzo[b]thiophene-3-carbonitrile] |
